Columns and labels:
[1] = Half life in male Crl:CD Sprague-Dawley rat at 40 to 80 mg/kg/day, po or iv measured after 28 days; assay type: ADME, organism-based; conditions: in vivo, dose 40-80 mg/kg/day, time 28 day
[2] = Oral bioavailability in F344/N Jcl-rnu rat at 40 to 80 mg/kg/day measured after 28 days; assay type: ADME, organism-based; conditions: in vivo, dose 40-80 mg/kg/day, time 28 day
[3] = Half life in F344/N Jcl-rnu rat at 40 to 80 mg/kg/day, po or iv measured after 28 days; assay type: ADME, organism-based; conditions: in vivo, dose 40-80 mg/kg/day, time 28 day
[4] = Oral bioavailability in male Crl:CD Sprague-Dawley rat at 40 to 80 mg/kg/day measured after 28 days; assay type: ADME, organism-based; conditions: in vivo, dose 40-80 mg/kg/day, time 28 day
LNCaP = test: Antitumor activity in human LNCaP cells xenografted in mouse model assessed as tumor growth regression at 200 mg/kg,po relative to control; assay type: functional
RS4-11 = test: Antitumor activity in human RS4-11 cells xenografted in mouse model assessed as tumor growth regression at 200 mg/kg,po relative to control; assay type: functional

Row | Compound | half-life [1] [h] | bioavailability [2] [%] | half-life [3] [h] | bioavailability [4] [%] | Activity (LNCaP) [%] | Activity (RS4-11) [%]
1 | COc1ccc(/C=C/c2nc(NCCCN(C)C)c3ccccc3n2)cc1 | 14 | 12 | 14 | 12 |  | 
2 | CC(C)(C)C[C@@H]1N[C@@H](C(=O)N[C@H]2CC[C@H](O)CC2)[C@H](c2cccc(Cl)c2F)[C@]12C(=O)Nc1cc(Cl)ccc12 [SAR-405838] |  |  |  |  | 80 | 100

Source: ChEMBL document CHEMBL5512606, “An overview of the functions of p53 and drugs acting either on wild- or mutant-type p53” (Eur J Med Chem, 2024)
